From patent publication US10124004B2, “Pyrido[3,4-d]pyrimidine derivative and pharmaceutically acceptable salt thereof” (Teijin Pharma Limited, priority 2015, dated 2018)
Where two headings read alike, the source gives them in different places.

Tests used:
[1] = target: T1, CDK4/cyclin D3 (Homo sapiens, UniProt P11802); assay: Human CDK4/cyclin D3 inhibitory activity (QS S Assist CDK4/Cyclin D3_FP Kit, IMAP fluorescence polarization); type: biochemical
T1 construct: purchased Carna Biosciences, Inc. QS S Assist CDK4/Cyclin D3_FP Kit
T1 sequence (P11802 whole entry): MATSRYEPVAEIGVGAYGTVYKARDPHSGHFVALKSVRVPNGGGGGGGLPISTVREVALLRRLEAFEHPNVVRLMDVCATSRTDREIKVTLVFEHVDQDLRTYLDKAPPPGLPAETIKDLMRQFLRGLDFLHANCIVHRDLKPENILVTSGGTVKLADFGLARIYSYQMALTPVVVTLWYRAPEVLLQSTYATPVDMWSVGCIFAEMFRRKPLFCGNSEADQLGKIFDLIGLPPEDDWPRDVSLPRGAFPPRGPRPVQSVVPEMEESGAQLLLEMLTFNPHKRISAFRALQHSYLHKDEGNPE
T1 sequence (P30281 whole entry partner): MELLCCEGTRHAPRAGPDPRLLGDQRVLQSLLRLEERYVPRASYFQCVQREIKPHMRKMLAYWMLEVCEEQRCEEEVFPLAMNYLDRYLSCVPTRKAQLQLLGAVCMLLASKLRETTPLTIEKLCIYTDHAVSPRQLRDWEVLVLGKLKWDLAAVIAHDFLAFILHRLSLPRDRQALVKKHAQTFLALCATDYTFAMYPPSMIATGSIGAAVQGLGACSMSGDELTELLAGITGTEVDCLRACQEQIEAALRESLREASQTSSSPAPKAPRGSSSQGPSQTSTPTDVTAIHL
How it was run: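 Percent inhibition, relative to DMSO with and without enzyme, was curve-fitted to give IC50 from polarization (ex 485, em 535 nm). The 45-min room-temperature reaction used 12.5-25 ng/well enzyme, kit ATP/substrate/metal mix, and HEPES pH 7.4 buffer with Tween20 and DTT, followed by 30-min IMAP binding in the dark.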

[2] = target: T2, CDK2/cyclin A2 (Homo sapiens, UniProt P24941); assay: Human CDK2/cyclin A2 inhibitory activity (QS S Assist CDK2/Cyclin A2_FP Kit, IMAP fluorescence polarization); type: biochemical
T2 construct: purchased Carna Biosciences, Inc. QS S Assist CDK2/Cyclin A2_FP Kit
How it was run: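 Kinase activity read as fluorescence polarization (485/535 nm) after phosphorylated fluorescent substrate binds IMAP reagent (30 min, RT, dark). Enzyme (2.5 ng/well) reacted 60 min at RT with ATP/substrate/metal in HEPES pH 7.4 buffer with Tween 20 and DTT; no-enzyme wells define 0% activity; IC50 by curve fit.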

[3] = 50% inhibitory concentration against CDK4/cyclin D3, given as class symbol
[4] = 50% inhibitory concentration against CDK2/cyclin A2, given as class symbol
[5] = Human CDK4/cyclin D3 inhibitory activity, read-out: CDK4 Activity symbol
[6] = Human CDK2/cyclin A2 inhibitory activity, read-out: CDK2 Activity symbol

SMILES	IC50 [1, 3] [µM]	IC50 [2, 4] [µM]	IC50 [1, 5] [µM]	IC50 [2, 6] [µM]
CC1(c2cc3cnc(Nc4ccc5c(n4)CCN(CCO)C5)nc3c(N[C@H]3CCCOC3)n2)COC1 [Compound 1129]	< 0.01	≥ 0.1		
CC(C)Nc1nc(C(C)O)cc2cnc(Nc3ccc(C4CNCCO4)cn3)nc12 (single isomer, unassigned) [Compound 736]	< 0.01	≥ 0.1		
C[C@@H](O)c1cc2cnc(Nc3ccc(CN4CCC[C@@H](O)C4)cn3)nc2c(NC(C)(C)C)n1 [Compound 1197]	< 0.01	≥ 0.1		
CC(C)Nc1nc(C(F)F)cc2cnc(Nc3ccc(CN(C4CCOC4)S(C)(=O)=O)cn3)nc12 (stereo not shown) [Compound 162]			0.01 to 0.1	≥ 0.1
CO[C@H](C)c1cc2cnc(Nc3ccc(C4CCCNC4)cn3)nc2c(NC(C)C)n1 (stereo partly shown) [Compound 332]			< 0.01	≥ 0.1
C[C@@H](O)c1cc2cnc(Nc3ccc(CN4CCN(CCO)CC4)cn3)nc2c(NC2(C)CC2)n1 [Compound 1201]	< 0.01	≥ 0.1		
C[C@@H](O)c1cc2cnc(Nc3ccc(N4CCNCC4=O)cn3)nc2c(NC2(C)CCCOC2)n1 (stereo partly shown) [Compound 903]	< 0.01	0.01 to 0.1		
C[C@@H](O)c1cc2cnc(Nc3ccc(CN4CCC[C@H](O)C4)cn3)nc2c(N[C@H]2CC[C@H](O)CC2)n1 [Compound 1190]	< 0.01	≥ 0.1		
CO[C@H](C)c1cc2cnc(Nc3ccc(N4CCNCCC4=O)cn3)nc2c(NC(C)C)n1 [Compound 499]			< 0.01	0.01 to 0.1
CCNc1nc([C@@H](C)OC)cc2cnc(Nc3ccc4c(n3)CCN(CCN(C)C)C4)nc12 [Compound 1131]	0.01 to 0.1	≥ 0.1		
CC(C)Nc1nc([C@@H](C)O)cc2cnc(Nc3ccc(N4CCN(CCO)CCC4=O)cn3)nc12 [Compound 811]	< 0.01	0.01 to 0.1		
CC(C)Nc1nc(C2CCCO2)cc2cnc(Nc3ccc(N4CCNCC4=O)cn3)nc12 (stereo not shown) [Compound 670]	≥ 0.1	≥ 0.1		
CC(C)Nc1nc([C@H](C)O)cc2cnc(Nc3ccc(N4CCNCC4)cn3)nc12 [Compound 17]			< 0.01	≥ 0.1
CC(C)Nc1nc(C(F)F)cc2cnc(Nc3ccc(CN4CCC(CO)CC4)cn3)nc12 [Compound 147]			< 0.01	0.01 to 0.1
CO[C@H](C)c1cc2cnc(Nc3ccc(N4CC[C@@H](N)[C@@H](F)C4)cn3)nc2c(NC(C)C)n1 [Compound 466]			< 0.01	≥ 0.1
COCCNCc1ccc(Nc2ncc3cc([C@@H](C)O)nc(NC(C)C)c3n2)nc1 [Compound 241]			< 0.01	≥ 0.1
CCNc1nc([C@@H](C)O)c(F)c2cnc(Nc3ccc(CN4CCN(CCO)CC4)cn3)nc12 [Compound 1202]	< 0.01	≥ 0.1		
CCNc1nc([C@@H](C)OC)cc2cnc(Nc3ccc4c(n3)CCN(C(=O)OCCN(C)C)C4)nc12 [Compound 1134]	< 0.01	≥ 0.1		
CC(C)Nc1nc([C@@H](C)O)cc2cnc(Nc3ccc(N4CCN(CC(=O)N5CCCC5)CC4)nn3)nc12 [Compound 966]	< 0.01	≥ 0.1		
CC(C)Nc1nc(C(F)F)cc2cnc(Nc3ccc(CC(N)=O)cn3)nc12 [Compound 132]			< 0.01	0.01 to 0.1
CC(C)Nc1nc(C(C)O)cc2cnc(Nc3ccc(N4CCC(N)C4)cn3)nc12 (stereo not shown) [Compound 76]			< 0.01	≥ 0.1
CCCCNc1nc([C@@H](C)O)cc2cnc(Nc3ccc(N4CCNCC4)cn3)nc12 [Compound 922]	< 0.01	≥ 0.1		
CC(C)Nc1nc(C(C)O)cc2cnc(Nc3ccc(N4CCC(N(C)C)C(F)C4)nn3)nc12 (stereo not shown) [Compound 622]			< 0.01	≥ 0.1
